Numbered stars: 1 amine (or outer) side, 2 acyl side, 3 side chain; on linkers, the order of the positions; unused ones are H or OH. Bridge positions count the residues as written; N and C are the ends. Square brackets hold non-standard residues; d marks the D form. Peptide text beside a SMILES is read from it. * marks the point of attachment. Phe(4-COOH) = N[C@@H](Cc1ccc(C(=O)O)cc1)C(=O)O; Phe(2-CF3) = N[C@@H](Cc1ccccc1C(F)(F)F)C(=O)O; Phe(3,5-F2) = N[C@@H](Cc1cc(F)cc(F)c1)C(=O)O; Bip = N[C@@H](Cc1ccc(-c2ccccc2)cc1)C(=O)O; Phe(3-F) = N[C@@H](Cc1cccc(F)c1)C(=O)O; Phe(3-Me) = Cc1cccc(C[C@H](N)C(=O)O)c1; γGlu = O=C(O)[C@H](CCC(=O)[*:2])N[*:1]; NH(CH2)12COOH = O=C(O)CCCCCCCCCCCCN*; Phe(2-F) = N[C@@H](Cc1ccccc1F)C(=O)O; Val(3-OH) = CC(C)(O)[C@H](N)C(=O)O; Cha = N[C@@H](CC1CCCCC1)C(=O)O; Carboxymethyl = O=C(O)C*; Nle = CCCC[C@H](N)C(=O)O; Orn = NCCC[C@H](N)C(=O)O; Aun = NCCCCCCCCCCC(=O)O; Dab = NCC[C@H](N)C(=O)O; Nva = CCC[C@H](N)C(=O)O; Dap = NC[C@H](N)C(=O)O; AEEA = NCCOCCOCC(=O)O
Target: T1, PD-1/PD-L1 interaction (PE-labeled human PD-L1-Ig binding to Jurkat cell line over-expressing human PD-1) (Homo sapiens, UniProt Q15116)
T1 construct: expressed in transfected cells; host or cells: Jurkat
T1 sequence (Q15116 25-288): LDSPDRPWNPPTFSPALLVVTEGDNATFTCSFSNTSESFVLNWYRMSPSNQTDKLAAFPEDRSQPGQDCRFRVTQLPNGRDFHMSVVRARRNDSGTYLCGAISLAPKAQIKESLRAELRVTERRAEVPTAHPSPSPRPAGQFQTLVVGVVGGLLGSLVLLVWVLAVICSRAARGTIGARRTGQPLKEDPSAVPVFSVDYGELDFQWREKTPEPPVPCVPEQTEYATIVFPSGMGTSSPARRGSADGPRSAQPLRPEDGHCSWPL
Assay: Jurkat-PD-1 Cell Binding High-Content Screening Assay (CBA)
Assay type: cell-based
Conditions: Jurkat cell line over-expressing human PD-1; PE-labeled PD-L1-Ig 20 nM final; read-out: Jurkat hPD1-PDL1 IC50
Method in brief: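 Jurkat cells stably over-expressing human PD-1 were seeded in DMEM with 10% fetal calf serum and pre-incubated with compound for 2 h at 37° C. PE-labeled human PD-L1-Ig was then added at 20 nM final for 1 hour, after which cells were fixed with paraformaldehyde, Hoechst-stained and imaged by high-content microscopy.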

Compound | IC50
Cc1cccc(C[C@@H]2NC(=O)[C@H](CC(=O)O)NC(=O)[C@H](Cc3ccc(OCC(=O)O)cc3)NC(=O)[C@H](CCN)NC(=O)CSC[C@@H](C(=O)N[C@@H](CCN)C(=O)NCCOCCOCC(=O)NCCOCCOCC(=O)N[C@@H](CC(=O)NCCCCCCCCCCCCC(=O)O)C(=O)O)NC(=O)[C@H](Cc3cnc[nH]3)NC(=O)[C@H](C(C)(C)O)NC(=O)[C@H](CC3CCCCC3)NC(=O)[C@H](CCN)NC(=O)[C@@H](CC(C)C)NC(=O)[C@H](CCCN)NC(=O)[C@H](Cc3ccc(C(=O)O)cc3)NC(=O)[C@H](Cc3ccc(-c4ccccc4)cc3)NC(=O)[C@H](Cc3ccc(C(=O)O)cc3)NC2=O)c1 [Compound 1255] ({CH2CO}-[Dab]Y(Carboxymethyl)D[Phe(3-Me)][Phe(4-COOH)][Bip][Phe(4-COOH)][Orn][dL][Dab][Cha][Val(3-OH)]HC[Dab][AEEA][AEEA]D(NH(CH2)12COOH)-OH; thioether N-14) | 10.2 nM
Cc1cccc(C[C@@H]2NC(=O)[C@H](CC(=O)O)NC(=O)[C@H](Cc3ccc(OCC(=O)O)cc3)NC(=O)[C@H](CCN)NC(=O)CSC[C@@H](C(=O)N[C@@H](CCN)C(=O)NCCOCCOCC(=O)NCCOCCOCC(=O)N[C@@H](CCC(=O)NCC(=O)NCCCCCCCCCCCCC(=O)O)C(=O)O)NC(=O)[C@H](Cc3cnc[nH]3)NC(=O)[C@H](C(C)(C)O)NC(=O)[C@H](CC3CCCCC3)NC(=O)[C@H](CCN)NC(=O)[C@@H](CC(C)C)NC(=O)[C@H](CCCN)NC(=O)[C@H](Cc3ccc(C(=O)O)cc3)NC(=O)[C@H](Cc3ccc(-c4ccccc4)cc3)NC(=O)[C@H](Cc3ccc(C(=O)O)cc3)NC2=O)c1 [Compound 1256] ({CH2CO}-[Dab]Y(Carboxymethyl)D[Phe(3-Me)][Phe(4-COOH)][Bip][Phe(4-COOH)][Orn][dL][Dab][Cha][Val(3-OH)]HC[Dab][AEEA][AEEA][γGlu]G-{NH(CH2)12COOH}; thioether N-14) | 9.9 nM
Cc1cccc(C[C@@H]2NC(=O)[C@H](CC(=O)O)NC(=O)[C@H](Cc3ccc(OCC(=O)O)cc3)NC(=O)[C@H](CN)NC(=O)CSC[C@@H](C(=O)N[C@@H](CCN)C(=O)NCCOCCOCC(=O)NCCCCCCCCCCC(=O)O)NC(=O)[C@H](CCC(=O)O)NC(=O)[C@H](C(C)C)NC(=O)[C@H](CC(C)C)NC(=O)[C@H](CCN)NC(=O)[C@@H](CC(C)C)NC(=O)[C@H](CCCN)NC(=O)[C@H](Cc3ccc(OCC(=O)O)cc3)NC(=O)[C@H](Cc3ccc(-c4ccccc4)cc3)NC(=O)[C@H](Cc3ccc(OCC(=O)O)cc3)NC2=O)c1 [Compound 1257] ({CH2CO}-[Dap]Y(Carboxymethyl)D[Phe(3-Me)]Y(Carboxymethyl)[Bip]Y(Carboxymethyl)[Orn][dL][Dab]LVEC[Dab][AEEA][Aun]-OH; thioether N-14) | 20 nM
CCCC[C@@H]1NC(=O)[C@H](CCN)NC(=O)[C@@H](CC(C)C)NC(=O)[C@H](CCCN)NC(=O)[C@H](Cc2ccc(OCC(=O)O)cc2)NC(=O)[C@H](Cc2ccc(-c3ccccc3)cc2)NC(=O)[C@H](Cc2ccc(OCC(=O)O)cc2)NC(=O)[C@H](Cc2cccc(C)c2)NC(=O)[C@H](CC(=O)O)NC(=O)[C@H](Cc2ccc(OCC(=O)O)cc2)NC(=O)[C@H](CN)NC(=O)CSC[C@@H](C(=O)N[C@@H](CCN)C(=O)NCCOCCOCC(=O)NCCCCCCCCCCC(=O)O)NC(=O)[C@H](CCC(=O)O)NC(=O)[C@H](C(C)C)NC1=O [Compound 1258] ({CH2CO}-[Dap]Y(Carboxymethyl)D[Phe(3-Me)]Y(Carboxymethyl)[Bip]Y(Carboxymethyl)[Orn][dL][Dab][Nle]VEC[Dab][AEEA][Aun]-OH; thioether N-14) | 44.6 nM
CCC[C@@H]1NC(=O)[C@H](CCN)NC(=O)[C@@H](CC(C)C)NC(=O)[C@H](CCCN)NC(=O)[C@H](Cc2ccc(OCC(=O)O)cc2)NC(=O)[C@H](Cc2ccc(-c3ccccc3)cc2)NC(=O)[C@H](Cc2ccc(OCC(=O)O)cc2)NC(=O)[C@H](Cc2cccc(C)c2)NC(=O)[C@H](CC(=O)O)NC(=O)[C@H](Cc2ccc(OCC(=O)O)cc2)NC(=O)[C@H](CN)NC(=O)CSC[C@@H](C(=O)N[C@@H](CCN)C(=O)NCCOCCOCC(=O)NCCCCCCCCCCC(=O)O)NC(=O)[C@H](CCC(=O)O)NC(=O)[C@H](C(C)C)NC1=O [Compound 1259] ({CH2CO}-[Dap]Y(Carboxymethyl)D[Phe(3-Me)]Y(Carboxymethyl)[Bip]Y(Carboxymethyl)[Orn][dL][Dab][Nva]VEC[Dab][AEEA][Aun]-OH; thioether N-14) | 153 nM
Cc1cccc(C[C@@H]2NC(=O)[C@H](CC(=O)O)NC(=O)[C@H](Cc3ccc(OCC(=O)O)cc3)NC(=O)[C@H](CN)NC(=O)CSC[C@@H](C(=O)N[C@@H](CCN)C(=O)NCCOCCOCC(=O)NCCCCCCCCCCC(=O)O)NC(=O)[C@H](CCC(=O)O)NC(=O)[C@H](C(C)C)NC(=O)[C@H](Cc3ccccc3)NC(=O)[C@H](CCN)NC(=O)[C@@H](CC(C)C)NC(=O)[C@H](CCCN)NC(=O)[C@H](Cc3ccc(OCC(=O)O)cc3)NC(=O)[C@H](Cc3ccc(-c4ccccc4)cc3)NC(=O)[C@H](Cc3ccc(OCC(=O)O)cc3)NC2=O)c1 [Compound 1261] ({CH2CO}-[Dap]Y(Carboxymethyl)D[Phe(3-Me)]Y(Carboxymethyl)[Bip]Y(Carboxymethyl)[Orn][dL][Dab]FVEC[Dab][AEEA][Aun]-OH; thioether N-14) | 9.3 nM
Cc1cccc(C[C@@H]2NC(=O)[C@H](CC(=O)O)NC(=O)[C@H](Cc3ccc(OCC(=O)O)cc3)NC(=O)[C@H](CC3CCCCC3)NC(=O)CSC[C@@H](C(=O)N[C@@H](CCN)C(=O)NCCOCCOCC(=O)NCCCCCCCCCCC(=O)O)NC(=O)[C@H](CO)NC(=O)[C@H](C(C)(C)O)NC(=O)[C@H](CC3CCCCC3)NC(=O)[C@H](CCN)NC(=O)[C@@H](CC(C)C)NC(=O)[C@H](CCCN)NC(=O)[C@H](Cc3ccc(OCC(=O)O)cc3)NC(=O)[C@H](Cc3ccc(-c4ccccc4)cc3)NC(=O)[C@H](Cc3ccc(OCC(=O)O)cc3)NC2=O)c1 [Compound 1263] ({CH2CO}-[Cha]Y(Carboxymethyl)D[Phe(3-Me)]Y(Carboxymethyl)[Bip]Y(Carboxymethyl)[Orn][dL][Dab][Cha][Val(3-OH)]SC[Dab][AEEA][Aun]-OH; thioether N-14) | 5.6 nM
Cc1cccc(C[C@@H]2NC(=O)[C@H](CC(=O)O)NC(=O)[C@H](Cc3ccc(OCC(=O)O)cc3)NC(=O)[C@H](CN)NC(=O)CSC[C@@H](C(=O)N[C@@H](CCN)C(=O)NCCOCCOCC(=O)NCCCCCCCCCCC(=O)O)NC(=O)[C@H](CCC(=O)O)NC(=O)[C@H](C(C)C)NC(=O)[C@H](Cc3ccccc3F)NC(=O)[C@H](CCN)NC(=O)[C@@H](CC(C)C)NC(=O)[C@H](CCCN)NC(=O)[C@H](Cc3ccc(OCC(=O)O)cc3)NC(=O)[C@H](Cc3ccc(-c4ccccc4)cc3)NC(=O)[C@H](Cc3ccc(C(=O)O)cc3)NC2=O)c1 [Compound 1266] ({CH2CO}-[Dap]Y(Carboxymethyl)D[Phe(3-Me)][Phe(4-COOH)][Bip]Y(Carboxymethyl)[Orn][dL][Dab][Phe(2-F)]VEC[Dab][AEEA][Aun]-OH; thioether N-14) | 14 nM
Cc1cccc(C[C@@H]2NC(=O)[C@H](CC(=O)O)NC(=O)[C@H](Cc3ccc(OCC(=O)O)cc3)NC(=O)[C@H](CN)NC(=O)CSC[C@@H](C(=O)N[C@@H](CCN)C(=O)NCCOCCOCC(=O)NCCCCCCCCCCC(=O)O)NC(=O)[C@H](CCC(=O)O)NC(=O)[C@H](C(C)C)NC(=O)[C@H](Cc3ccccc3C(F)(F)F)NC(=O)[C@H](CCN)NC(=O)[C@@H](CC(C)C)NC(=O)[C@H](CCCN)NC(=O)[C@H](Cc3ccc(OCC(=O)O)cc3)NC(=O)[C@H](Cc3ccc(-c4ccccc4)cc3)NC(=O)[C@H](Cc3ccc(C(=O)O)cc3)NC2=O)c1 [Compound 1267] ({CH2CO}-[Dap]Y(Carboxymethyl)D[Phe(3-Me)][Phe(4-COOH)][Bip]Y(Carboxymethyl)[Orn][dL][Dab][Phe(2-CF3)]VEC[Dab][AEEA][Aun]-OH; thioether N-14) | 15.2 nM
Cc1cccc(C[C@@H]2NC(=O)[C@H](CC(=O)O)NC(=O)[C@H](Cc3ccc(OCC(=O)O)cc3)NC(=O)[C@H](CN)NC(=O)CSC[C@@H](C(=O)N[C@@H](CCN)C(=O)NCCOCCOCC(=O)NCCCCCCCCCCC(=O)O)NC(=O)[C@H](CCC(=O)O)NC(=O)[C@H](C(C)C)NC(=O)[C@H](Cc3cccc(F)c3)NC(=O)[C@H](CCN)NC(=O)[C@@H](CC(C)C)NC(=O)[C@H](CCCN)NC(=O)[C@H](Cc3ccc(OCC(=O)O)cc3)NC(=O)[C@H](Cc3ccc(-c4ccccc4)cc3)NC(=O)[C@H](Cc3ccc(C(=O)O)cc3)NC2=O)c1 [Compound 1268] ({CH2CO}-[Dap]Y(Carboxymethyl)D[Phe(3-Me)][Phe(4-COOH)][Bip]Y(Carboxymethyl)[Orn][dL][Dab][Phe(3-F)]VEC[Dab][AEEA][Aun]-OH; thioether N-14) | 13.2 nM
Cc1cccc(C[C@@H]2NC(=O)[C@H](CC(=O)O)NC(=O)[C@H](Cc3ccc(OCC(=O)O)cc3)NC(=O)[C@H](CN)NC(=O)CSC[C@@H](C(=O)N[C@@H](CCN)C(=O)NCCOCCOCC(=O)NCCCCCCCCCCC(=O)O)NC(=O)[C@H](CCC(=O)O)NC(=O)[C@H](C(C)C)NC(=O)[C@H](Cc3cc(F)cc(F)c3)NC(=O)[C@H](CCN)NC(=O)[C@@H](CC(C)C)NC(=O)[C@H](CCCN)NC(=O)[C@H](Cc3ccc(OCC(=O)O)cc3)NC(=O)[C@H](Cc3ccc(-c4ccccc4)cc3)NC(=O)[C@H](Cc3ccc(C(=O)O)cc3)NC2=O)c1 [Compound 1269] ({CH2CO}-[Dap]Y(Carboxymethyl)D[Phe(3-Me)][Phe(4-COOH)][Bip]Y(Carboxymethyl)[Orn][dL][Dab][Phe(3,5-F2)]VEC[Dab][AEEA][Aun]-OH; thioether N-14) | 11.4 nM
